Data taken from US20020173452A1, “Cytostatic-glycoconjugates having specifically cleavable linking units” (priority 2000, published 2002).
Where a SMILES comes first, the peptide text is derived from it. [ ]: non-standard residue; d: D form. The star is where a group is joined. ξ: configuration not given here. Camptothecin(20R,20-O) = CC[C@]1(O*)C(=O)OCc2c1cc1n(c2=O)Cc2cc3ccccc3nc2-1; X5 = C[C@H]1O[C@@H](Oc2ccc(NC(=S)*)cc2)[C@@H](O)[C@@H](OCC(N)=O)[C@H]1O; X9 = C[C@H]1O[C@@H](Oc2ccc(NC(=S)*)cc2)[C@@H](O)[C@@H](OCCO)[C@H]1O; X8 = C[C@H]1OC(Oc2ccc(NC(=S)*)cc2)[C@@H](O)[C@@H](OCC(=O)O)[C@H]1O; X4 = CO[C@H]1[C@H](O)[C@@H](Oc2ccc(NC(=S)*)cc2)O[C@@H](C)[C@H]1O; X6 = CO[C@@H]1[C@H](O)[C@H](Oc2ccc(NC(=S)*)cc2)O[C@H](C)[C@@H]1O; X1 = CO[C@H]1[C@@H](O)[C@@H](C)OC(Oc2ccc(NC(=S)*)cc2)[C@H]1O; X7 = OC[C@H]1OC(Oc2ccc(NC(=S)*)cc2)[C@@H](O)[C@@H](O)[C@H]1O; X2 = CC[C@@]1(O*)C(=O)OCc2c1cc1n(c2=O)Cc2cc3ccccc3nc2-1; Ile(3ξ) = CCC(C)[C@H](N)C(=O)O; ξV = CC(C)C(N)C(=O)O; ξP = O=C(O)C1CCCN1

Experiments:
Experiment in all cases: Growth inhibition test (MTT) for cytotoxic properties on tumour cell lines
Assay type in all cases: cell-based
[1] = test system: B16F10 mouse melanoma cell line; conditions: B16F10 cells, growth checked after day 6, read-out: IC50 of the cytotoxic action on tumour cell lines, B16F10
Procedure: (§1) A: Growth Inhibition Test for the Determination of the Cytotoxic Properties on Various Tumour Cell Lines
(§2) The human large intestine cell lines SW 480 and HT29 (ATCC No. CCL 228 and HTB38 and the mouse melanoma cell line B16F10 (CRL 6475) were grown to confluence in Roux dishes in RPMI 1640 medium with addition of 10% FCS. They were then trypsinized and taken up in RPMI plus 10% FCS to a cell count of 50,000 cells or, for B16F10, 20,000 cells per ml. 100 μl of cell suspension/well were added to a 96 microwell plate and incubated at 37° C. for 1 day in a CO2 incubator. A further 100 μl of RPMI medium and 1 μl of DMSO were then added with the test substances. The growth was checked after day 6. For this, 25 μl of MTT solution (3-(4,5-dimethylthiazol-2-yl)-2,5-diphenyltetrazolium bromide) was added to each well at a starting concentration of 5 mg/ml of H2O. The plate was incubated at 37° C. for 5 hours in a CO2 incubator. The medium was then aspirated and 100 μl of 1-propanol/well were added. After shaking with 100 μl of H2O for 30 min, the extinction was measured at 595 nm using a Multiplate Reader (BIO-RAD 3550-UV).
(§3) The cytostatic action is indicated in Table 1 as an IC50 value, in each case for the individual cell lines.

[2] = test system: HT29 human large intestine cell line; conditions: HT29 cells, growth checked after day 6, read-out: IC50 of the cytotoxic action on tumour cell lines, HT29
Procedure: as §1, §2, §3

[3] = test system: SW 480 human large intestine cell line; conditions: SW480 cells, growth checked after day 6, read-out: IC50 of the cytotoxic action on tumour cell lines, SW480
Procedure: as §1, §2, §3

| Structure (SMILES) | IC50 [1] | IC50 [2] | IC50 [3] |
| --- | --- | --- | --- |
| CC[C@@]1(OC(=O)[C@H](NC(=O)[C@@H](CSC)NC(=O)[C@@H](CC(C)C)NC(=O)CNC(=O)[C@H](CC(C)C)NC(=O)[C@H]2CCCN2C(=S)Nc2ccc(OC3O[C@H](C)[C@H](O)[C@H](OC)[C@@H]3O)cc2)C(C)C)C(=O)OCc2c1cc1n(c2=O)Cc2cc3ccccc3nc2-1 (stereo partly drawn) [Example 8] (X1-[dP]LG[dL][dC](Me)[dV]-X2) | 150 nM | 40 nM | 50 nM |
| CC[C@@]1(OC(=O)[C@H](NC(=O)[C@@H](Cc2c[nH]cn2)NC(=O)CNC(=O)[C@H](CC(C)C)NC(=O)[C@H]2CCCN2C(=S)Nc2ccc(OC3O[C@H](C)[C@H](O)[C@H](OC)[C@@H]3O)cc2)C(C)C)C(=O)OCc2c1cc1n(c2=O)Cc2cc3ccccc3nc2-1 (stereo partly drawn) [Example 1] | 150 nM | 70 nM | 150 nM |
| CC[C@]1(OC(=O)[C@H](NC(=O)[C@@H](CC(N)=O)NC(=O)[C@@H](CC(C)C)NC(=O)CNC(=O)[C@H](CC(C)C)NC(=O)C2CCCN2C(=O)CNC(=S)Nc2ccc(O[C@@H]3O[C@H](C)[C@H](O)[C@H](OC)[C@@H]3O)cc2)C(C)C)C(=O)OCc2c1cc1n(c2=O)Cc2cc3ccccc3nc2-1 (stereo partly drawn) [Example 27] (X6-G[ξP]LG[dL][dN][dV]-{Camptothecin(20R,20-O)}) | 50 nM | 15 nM | 25 nM |
| CC[C@@]1(OC(=O)[C@@H](NC(=O)CNC(=O)[C@H](CC(C)C)NC(=O)CNC(=O)[C@H](CC(C)C)NC(=O)[C@@H]2CCCN2C(=S)Nc2ccc(O[C@H]3O[C@@H](C)[C@@H](O)[C@@H](OC)[C@@H]3O)cc2)C(C)C)C(=O)OCc2c1cc1n(c2=O)Cc2cc3ccccc3nc2-1 [Example 20] (X4-PLGLGV-X2) | 800 nM | 250 nM | 120 nM |
| CC[C@]1(OC(=O)C(NC(=O)[C@@H](CC(N)=O)NC(=O)[C@@H](CC(C)C)NC(=O)CNC(=O)[C@H](CC(C)C)NC(=O)C2CCCN2C(=S)Nc2ccc(O[C@@H]3O[C@H](C)[C@H](O)[C@H](OCC(N)=O)[C@@H]3O)cc2)C(C)C)C(=O)OCc2c1cc1n(c2=O)Cc2cc3ccccc3nc2-1 (stereo partly drawn) [Example 26] (X5-[ξP]LG[dL][dN][ξV]-{Camptothecin(20R,20-O)}) | 450 nM | 90 nM | 150 nM |
| CC[C@@]1(OC(=O)[C@H](NC(=O)[C@@H](CC(N)=O)NC(=O)[C@@H](CC(C)C)NC(=O)CNC(=O)[C@H](CC(C)C)NC(=O)[C@H]2CCCN2C(=S)Nc2ccc(OC3O[C@H](C)[C@H](O)[C@H](OCC(=O)O)[C@@H]3O)cc2)C(C)C)C(=O)OCc2c1cc1n(c2=O)Cc2cc3ccccc3nc2-1 (stereo partly drawn) [Example 23] (X8-[dP]LG[dL][dN][dV]-X2) | 800 nM | 120 nM | 200 nM |
| CC[C@@]1(OC(=O)[C@H](NC(=O)[C@@H](CC(N)=O)NC(=O)[C@@H](CC(C)C)NC(=O)CNC(=O)[C@H](CC(C)C)NC(=O)[C@H]2CCCN2C(=S)Nc2ccc(OC3O[C@H](CO)[C@H](O)[C@H](O)[C@@H]3O)cc2)C(C)C)C(=O)OCc2c1cc1n(c2=O)Cc2cc3ccccc3nc2-1 (stereo partly drawn) [Example 24] (X7-[dP]LG[dL][dN][dV]-X2) | 500 nM | 100 nM | 200 nM |
| CC[C@@]1(OC(=O)[C@@H](NC(=O)[C@H](C)NC(=O)[C@H](CC(C)C)NC(=O)CNC(=O)[C@H](CC(C)C)NC(=O)[C@@H]2CCCN2C(=S)Nc2ccc(O[C@H]3O[C@@H](C)[C@@H](O)[C@@H](OC)[C@@H]3O)cc2)C(C)C)C(=O)OCc2c1cc1n(c2=O)Cc2cc3ccccc3nc2-1 [Example 22] (X4-PLGLAV-X2) | 250 nM | 70 nM | 40 nM |
| CC[C@@]1(OC(=O)[C@@H](NC(=O)[C@H](CO)NC(=O)[C@H](CC(C)C)NC(=O)CNC(=O)[C@H](CC(C)C)NC(=O)[C@@H]2CCCN2C(=S)Nc2ccc(O[C@H]3O[C@@H](C)[C@@H](O)[C@@H](OC)[C@@H]3O)cc2)C(C)C)C(=O)OCc2c1cc1n(c2=O)Cc2cc3ccccc3nc2-1 [Example 17] (X4-PLGLSV-X2) | 200 nM | 70 nM | 40 nM |
| CC[C@@]1(OC(=O)[C@H](NC(=O)[C@@H](Cc2c[nH]cn2)NC(=O)[C@@H](CC(C)C)NC(=O)CNC(=O)[C@H](CC(C)C)NC(=O)[C@H]2CCCN2C(=S)Nc2ccc(OC3O[C@H](C)[C@H](O)[C@H](OC)[C@@H]3O)cc2)C(C)C)C(=O)OCc2c1cc1n(c2=O)Cc2cc3ccccc3nc2-1 (stereo partly drawn) [Example 13] (X1-[dP]LG[dL][dH][dV]-X2) | 200 nM | 70 nM | 100 nM |
| CC[C@@]1(OC(=O)[C@H](NC(=O)[C@@H](Cc2c[nH]cn2)NC(=O)[C@@H](CC(C)C)NC(=O)CNC(=O)[C@H](CC(C)C)NC(=O)[C@H]2CCCN2C(=S)Nc2ccc(OC3O[C@H](C)[C@H](O)[C@H](OC)[C@@H]3O)cc2)C(C)C)C(=O)OCc2c1cc1n(c2=O)Cc2cc3ccccc3nc2-1 (stereo partly drawn) [Example 11] (X1-[dP]LG[dL][dH][dV]-X2) | 300 nM | 80 nM | 200 nM |
| CC[C@@]1(OC(=O)[C@@H](NC(=O)[C@H](CCC(=O)O)NC(=O)[C@H](CC(C)C)NC(=O)CNC(=O)[C@H](CC(C)C)NC(=O)[C@@H]2CCCN2C(=S)Nc2ccc(O[C@H]3O[C@@H](C)[C@@H](O)[C@@H](OC)[C@@H]3O)cc2)C(C)C)C(=O)OCc2c1cc1n(c2=O)Cc2cc3ccccc3nc2-1 [Example 19] (X4-PLGLEV-X2) | 1500 nM | 400 nM | 200 nM |
| CC[C@]1(OC(=O)[C@H](NC(=O)[C@@H](CCCCN)NC(=O)[C@@H](CC(C)C)NC(=O)CNC(=O)[C@H](CC(C)C)NC(=O)[C@H]2CCCN2C(=S)Nc2ccc(O[C@@H]3O[C@H](C)[C@H](O)[C@H](OC)[C@@H]3O)cc2)C(C)C)C(=O)OCc2c1cc1n(c2=O)Cc2cc3ccccc3nc2-1 [Example 10] (X6-[dP]LG[dL][dK][dV]-{Camptothecin(20R,20-O)}) | 150 nM | 70 nM | 80 nM |
| CC[C@@]1(OC(=O)[C@@H](NC(=O)[C@@H](C)NC(=O)[C@H](CC(C)C)NC(=O)CNC(=O)[C@H](CC(C)C)NC(=O)[C@@H]2CCCN2C(=S)Nc2ccc(O[C@H]3O[C@@H](C)[C@@H](O)[C@@H](OC)[C@@H]3O)cc2)C(C)C)C(=O)OCc2c1cc1n(c2=O)Cc2cc3ccccc3nc2-1 [Example 14] (X4-PLGL[dA]V-X2) | 2000 nM | 900 nM | 700 nM |
| CC[C@@]1(OC(=O)[C@@H](NC(=O)[C@@H](NC(=O)[C@H](CC(C)C)NC(=O)CNC(=O)[C@H](CC(C)C)NC(=O)[C@@H]2CCCN2C(=S)Nc2ccc(O[C@H]3O[C@@H](C)[C@@H](O)[C@@H](OC)[C@@H]3O)cc2)C(C)C)C(C)C)C(=O)OCc2c1cc1n(c2=O)Cc2cc3ccccc3nc2-1 [Example 15] (X4-PLGLVV-X2) | 400 nM | 100 nM | 80 nM |
| CC[C@]1(OC(=O)[C@H](NC(=O)[C@@H](CC(N)=O)NC(=O)[C@@H](CC(C)C)NC(=O)CNC(=O)[C@H](CC(C)C)NC(=O)[C@H]2CCCN2C(=S)Nc2ccc(O[C@@H]3O[C@H](C)[C@H](O)[C@H](OCCO)[C@@H]3O)cc2)C(C)C)C(=O)OCc2c1cc1n(c2=O)Cc2cc3ccccc3nc2-1 [Example 25] (X9-[dP]LG[dL][dN][dV]-{Camptothecin(20R,20-O)}) | 800 nM | 150 nM | 180 nM |
| CC[C@@]1(OC(=O)[C@@H](NC(=O)[C@H](Cc2ccccc2)NC(=O)[C@H](CC(C)C)NC(=O)CNC(=O)[C@H](CC(C)C)NC(=O)[C@@H]2CCCN2C(=S)Nc2ccc(O[C@H]3O[C@@H](C)[C@@H](O)[C@@H](OC)[C@@H]3O)cc2)C(C)C)C(=O)OCc2c1cc1n(c2=O)Cc2cc3ccccc3nc2-1 [Example 16] (X4-PLGLFV-X2) | 250 nM | 80 nM | 60 nM |
| CC[C@@]1(OC(=O)[C@@H](NC(=O)[C@@H]2CCCN2C(=O)[C@H](CC(C)C)NC(=O)CNC(=O)[C@H](CC(C)C)NC(=O)[C@@H]2CCCN2C(=S)Nc2ccc(O[C@H]3O[C@@H](C)[C@@H](O)[C@@H](OC)[C@@H]3O)cc2)C(C)C)C(=O)OCc2c1cc1n(c2=O)Cc2cc3ccccc3nc2-1 [Example 21] (X4-PLGLPV-X2) | 800 nM | 250 nM | 100 nM |
| CCC(C)[C@H](NC(=O)[C@H](CC(C)C)NC(=O)CNC(=O)[C@H](CC(C)C)NC(=O)[C@@H]1CCCN1C(=S)Nc1ccc(O[C@H]2O[C@@H](C)[C@@H](O)[C@@H](OC)[C@@H]2O)cc1)C(=O)N[C@H](C(=O)O[C@]1(CC)C(=O)OCc2c1cc1n(c2=O)Cc2cc3ccccc3nc2-1)C(C)C (stereo partly drawn) [Example 18] (X4-PLGL[Ile(3ξ)]V-X2) | 600 nM | 200 nM | 100 nM |
